Test results reported in the supplement of paper PMC10307832.

Key:
Experiment in all cases: relative viability (nuclei count vs DMSO), 5 days (fraction); higher = more cells survive
[1] = compound: CCN1C(=O)C2=CC(=C(N=C2N(C1=O)C3CC3)N)C(=O)N
Summary of the method: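 Lung cancer cell lines in 1536-well plates were kept overnight at 37 °C, then pinned with five library-drug doses (not always all listed) spaced by √10 on vehicle-anchored plates. After 5 days without medium change, cells were fixed, permeabilised and Hoechst-stained in one step, imaged at 4×, and nuclei were counted with MetaXpress. Viability is treated-well nuclei divided by vehicle-well nuclei, taken as the median over plates. Plates passed only with control CV below 25% and at least one doubling.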

[2] = compound: CCN1C(=O)C2=CC(=C(N=C2N(C1=O)C3CC3)N)C(=O)N + CC1(C)CCC(c2ccc(Cl)cc2)=C(CN2CCN(c3ccc(C(=O)NS(=O)(=O)c4ccc(N[C@H](CCN5CCOCC5)CSc5ccccc5)c(S(=O)(=O)C(F)(F)F)c4)cc3)CC2)C1 [Navitoclax] (partner 0.5 µM)
Summary of the method: (§1)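 Relative viability divides the nuclei count in treated wells by that in vehicle wells. Lung cancer cell lines were seeded in 1536-well plates, dosed by pin tool the next day, and fixed and stained after 5 days in one step with final 0.05% Triton X-100, 1% formaldehyde and 1 ug/ml Hoechst. Dosing was a single drug or a fixed anchor-drug dose plus five library-drug doses (not always all listed) in √10 steps, and values are medians of duplicate plates imaged at 4×.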

[3] = compound: CCN1C(=O)C2=CC(=C(N=C2N(C1=O)C3CC3)N)C(=O)N + CS(=O)(=O)CCNCc1ccc(-c2ccc3ncnc(Nc4ccc(OCc5cccc(F)c5)c(Cl)c4)c3c2)o1 [Lapatinib] (partner 2 µM)
Summary of the method: as §1

[4] = compound: CCN1C(=O)C2=CC(=C(N=C2N(C1=O)C3CC3)N)C(=O)N + Cc1nc(Nc2ncc(C(=O)Nc3c(C)cccc3Cl)s2)cc(N2CCN(CCO)CC2)n1 [Dasatinib] (partner 0.075 µM)
Summary of the method: as §1

[5] = compound: CCN1C(=O)C2=CC(=C(N=C2N(C1=O)C3CC3)N)C(=O)N + O=C(CCCCCCC(=O)Nc1ccccc1)NO [Vorinostat] (partner 1 µM)
Summary of the method: as §1

Cell Line | relative viability ([1]; 0.253 µM) | relative viability ([1]; 0.8 µM) | relative viability ([1]; 2.53 µM) | relative viability ([1]; 8 µM) | relative viability ([2]; first compound 0.253 µM) | relative viability ([2]; first compound 0.8 µM) | relative viability ([2]; first compound 2.53 µM) | relative viability ([2]; first compound 8 µM) | relative viability ([3]; first compound 0.253 µM) | relative viability ([3]; first compound 0.8 µM) | relative viability ([3]; first compound 2.53 µM) | relative viability ([3]; first compound 8 µM) | relative viability ([4]; first compound 0.253 µM) | relative viability ([4]; first compound 0.8 µM) | relative viability ([4]; first compound 2.53 µM) | relative viability ([4]; first compound 8 µM) | relative viability ([5]; first compound 0.253 µM) | relative viability ([5]; first compound 0.8 µM) | relative viability ([5]; first compound 2.53 µM) | relative viability ([5]; first compound 8 µM)
NCI-H1944 | 1.01 | 0.919 | 0.954 | 0.827 | 1.02 | 1.04 | 0.978 | 1.02 | 0.873 | 0.679 | 0.818 | 0.756 | 0.22 | 0.217 | 0.213 | 0.217 | 0.641 | 0.51 | 0.51 | 0.553
NCI-H2023 | 0.937 | 0.901 | 0.836 | 0.896 | 0.946 | 1.02 | 0.955 | 0.95 | 0.51 | 0.813 | 0.777 | 0.776 | 0.629 | 0.478 | 0.546 | 0.55 | 0.628 | 0.58 | 0.68 | 0.712
NCI-H1650 | 0.937 | 0.932 | 0.901 | 0.877 | 1.1 | 1.25 | 1.1 | 1.19 | 0.337 | 0.815 | 0.746 | 0.904 | 0.279 | 0.264 | 0.308 | 0.329 | 0.562 | 0.614 | 0.494 | 0.622
NCI-H1395 | 0.935 | 0.972 | 1.08 | 0.921 | 1.1 | 1.34 | 1.13 | 1.73 | 1.04 | 0.915 | 1.1 | 0.893 | 0.395 | 0.392 | 0.405 | 0.405 | 0.716 | 0.549 | 0.912 | 0.674
NCI-H2087 | 0.972 | 1.14 | 1.05 | 1.03 | 0.94 | 1.11 | 0.994 | 0.941 | 0.811 | 1.14 | 1.21 | 0.872 | 0.746 | 0.829 | 0.818 | 0.753 | 0.634 | 1.23 | 0.911 | 0.676
PC-14 | 0.983 | 0.951 | 1.07 | 1.06 | 1.01 | 1.06 | 0.935 | 0.956 | 0.293 | 0.287 | 0.303 | 0.315 | 0.244 | 0.258 | 0.252 | 0.298 | 0.621 | 0.743 | 0.679 | 0.779
NCI-H1793 | 0.808 | 1.02 | 0.815 | 1.12 | 0.701 | 0.385 |  | 0.404 | 0.635 | 0.819 |  | 0.636 |  | 0.434 | 0.32 | 0.419 | 0.665 | 0.747 | 0.797 | 0.805
LC-2-ad | 0.915 | 0.937 | 1 | 0.977 | 0.416 | 0.45 | 0.462 | 0.518 | 0.841 | 0.747 | 0.943 | 0.903 | 0.537 | 0.526 | 0.652 | 0.698 | 0.663 | 0.754 | 0.698 | 0.721
HCC-78 | 0.947 | 0.939 | 1.04 | 0.994 | 0.436 | 0.788 | 0.691 | 0.94 | 0.581 | 0.626 | 0.937 | 0.719 | 0.368 |  | 0.595 | 0.365 | 0.451 | 0.437 | 0.437 | 0.462
LOU-NH91 | 0.838 | 0.921 | 0.996 | 0.944 | 0.656 | 0.68 | 0.701 | 0.689 | 0.869 | 0.732 | 0.83 | 0.766 | 0.499 | 0.526 | 0.54 | 0.527 | 0.863 | 0.848 | 0.948 | 0.903
NCI-H1734 | 0.9 | 0.903 | 0.948 | 0.943 | 0.737 | 0.813 | 0.778 | 0.888 | 1.08 | 1.07 | 1.03 | 1.1 | 0.437 | 0.459 | 0.425 | 0.453 | 0.744 | 0.762 | 0.811 | 0.784
NCI-H520 | 0.985 | 1.02 | 0.972 | 0.904 | 1.04 | 1.22 | 1.02 | 1.41 | 0.898 | 0.907 | 0.957 | 0.941 | 0.17 | 0.222 | 0.222 | 0.31 | 0.719 | 0.655 | 0.717 | 0.817
SK-LU-1 | 1.05 | 1.07 | 1.06 | 1.06 | 0.797 | 0.855 | 0.977 | 0.865 | 0.879 | 0.879 | 0.897 | 1.04 | 0.196 | 0.184 | 0.176 | 0.187 | 0.699 | 0.755 | 0.773 | 0.876
NCI-H647 | 1.02 | 0.896 | 0.993 | 0.924 | 1.18 | 1.25 | 1.14 | 1.08 | 1.09 | 1.13 | 0.992 | 1.13 | 0.182 | 0.176 | 0.172 | 0.16 | 0.448 | 0.477 | 0.557 | 0.862
NCI-H1755 | 0.984 | 1.02 | 1 | 0.979 | 1.03 | 0.936 | 0.98 | 0.938 | 0.999 | 1.09 | 0.779 | 1.02 | 0.411 | 0.506 | 0.459 | 0.45 | 0.743 | 0.722 | 0.76 | 0.719
UMC-11 | 0.946 | 0.935 | 0.951 | 0.969 | 0.312 | 0.277 | 0.308 | 0.324 | 1.12 | 0.909 | 1 | 0.9 | 0.463 | 0.434 | 0.485 | 0.496 | 0.415 | 0.34 | 0.373 | 0.408
